In PMC4254589 (Bioorganic & medicinal chemistry, 2014):
Where two headings read alike, the source gives them in different places. Bridge positions count the residues as written; N and C are the ends. Square brackets hold non-standard residues; d marks the D form. Peptide text beside a SMILES is read from it. d2Nal = N[C@H](Cc1ccc2ccccc2c1)C(=O)O; Nle = CCCC[C@H](N)C(=O)O

Tests used:
[1] = biological target: T1, hMC4R (Homo sapiens, UniProt P32245); assay: Lanthanide-based competitive binding assay
T1 sequence (P32245 whole entry): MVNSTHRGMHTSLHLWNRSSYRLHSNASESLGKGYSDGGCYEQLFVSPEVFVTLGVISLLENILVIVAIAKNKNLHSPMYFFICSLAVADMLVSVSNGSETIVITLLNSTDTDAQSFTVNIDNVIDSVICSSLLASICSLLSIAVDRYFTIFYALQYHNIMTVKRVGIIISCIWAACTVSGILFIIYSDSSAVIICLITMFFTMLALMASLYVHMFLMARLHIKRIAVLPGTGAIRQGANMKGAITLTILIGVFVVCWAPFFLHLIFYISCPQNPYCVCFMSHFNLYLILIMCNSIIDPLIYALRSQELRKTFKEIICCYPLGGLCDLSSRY

[2] = biological target: T1, hMC4R; details: binding to hMC4R, MSH(7) ligands; cited from earlier work

Row | Molecule | EC50 ([1]; SEM) [nM] | EC50 [2] [nM] | further results
1 | Ac-(Pro-Gly)9- MSH(7)-NH2 (Ac-PGPGPGPGPGPGPGPGPGS[Nle]EH[dF]RW-NH2; SMILES CCCC[C@H](NC(=O)[C@H](CO)NC(=O)CNC(=O)[C@@H]1CCCN1C(=O)CNC(=O)[C@@H]1CCCN1C(=O)CNC(=O)[C@@H]1CCCN1C(=O)CNC(=O)[C@@H]1CCCN1C(=O)CNC(=O)[C@@H]1CCCN1C(=O)CNC(=O)[C@@H]1CCCN1C(=O)CNC(=O)[C@@H]1CCCN1C(=O)CNC(=O)[C@@H]1CCCN1C(=O)CNC(=O)[C@@H]1CCCN1C(C)=O)C(=O)N[C@@H](CCC(=O)O)C(=O)N[C@@H](Cc1c[nH]cn1)C(=O)N[C@H](Cc1ccccc1)C(=O)N[C@@H](CCCNC(=N)N)C(=O)N[C@@H](Cc1c[nH]c2ccccc12)C(N)=O) [compound 20] | – | 236 ± 24 | –
2 | Ac-MSH(7)-(Pro-Gly)6- MSH(7)-NH2 (Ac-S[Nle]EH[dF]RWPGPGPGPGPGPGS[Nle]EH[dF]RW-NH2; SMILES CCCC[C@H](NC(=O)[C@H](CO)NC(C)=O)C(=O)N[C@@H](CCC(=O)O)C(=O)N[C@@H](Cc1c[nH]cn1)C(=O)N[C@H](Cc1ccccc1)C(=O)N[C@@H](CCCNC(=N)N)C(=O)N[C@@H](Cc1c[nH]c2ccccc12)C(=O)N1CCC[C@H]1C(=O)NCC(=O)N1CCC[C@H]1C(=O)NCC(=O)N1CCC[C@H]1C(=O)NCC(=O)N1CCC[C@H]1C(=O)NCC(=O)N1CCC[C@H]1C(=O)NCC(=O)N1CCC[C@H]1C(=O)NCC(=O)N[C@@H](CO)C(=O)N[C@@H](CCCC)C(=O)N[C@@H](CCC(=O)O)C(=O)N[C@@H](Cc1c[nH]cn1)C(=O)N[C@H](Cc1ccccc1)C(=O)N[C@@H](CCCNC(=N)N)C(=O)N[C@@H](Cc1c[nH]c2ccccc12)C(N)=O) [compound 22] | – | 11 ± 2 | –
3 | Ac-(Pro-Gly)6- MSH(7)-NH2 (Ac-PGPGPGPGPGPGS[Nle]EH[dF]RW-NH2; SMILES CCCC[C@H](NC(=O)[C@H](CO)NC(=O)CNC(=O)[C@@H]1CCCN1C(=O)CNC(=O)[C@@H]1CCCN1C(=O)CNC(=O)[C@@H]1CCCN1C(=O)CNC(=O)[C@@H]1CCCN1C(=O)CNC(=O)[C@@H]1CCCN1C(=O)CNC(=O)[C@@H]1CCCN1C(C)=O)C(=O)N[C@@H](CCC(=O)O)C(=O)N[C@@H](Cc1c[nH]cn1)C(=O)N[C@H](Cc1ccccc1)C(=O)N[C@@H](CCCNC(=N)N)C(=O)N[C@@H](Cc1c[nH]c2ccccc12)C(N)=O) [compound 19] | – | 82 ± 12 | –
4 | CCCC[C@H](NC(=O)[C@H](CO)NC(C)=O)C(=O)N[C@@H](CCC(=O)O)C(=O)N[C@@H](Cc1c[nH]cn1)C(=O)N[C@H](Cc1ccccc1)C(=O)N[C@@H](CCCNC(=N)N)C(=O)N[C@@H](Cc1c[nH]c2ccccc12)C(N)=O [MSH(7), Ac-Ser-Nle-Glu-His-D-Phe-Arg-Trp-NH2] (Ac-S[Nle]EH[dF]RW-NH2) | – | – | EC50 [1]: ~50 nM
5 | Ac-(Pro-Gly)12- MSH(7)-NH2 (Ac-PGPGPGPGPGPGPGPGPGPGPGPGS[Nle]EH[dF]RW-NH2; SMILES CCCC[C@H](NC(=O)[C@H](CO)NC(=O)CNC(=O)[C@@H]1CCCN1C(=O)CNC(=O)[C@@H]1CCCN1C(=O)CNC(=O)[C@@H]1CCCN1C(=O)CNC(=O)[C@@H]1CCCN1C(=O)CNC(=O)[C@@H]1CCCN1C(=O)CNC(=O)[C@@H]1CCCN1C(=O)CNC(=O)[C@@H]1CCCN1C(=O)CNC(=O)[C@@H]1CCCN1C(=O)CNC(=O)[C@@H]1CCCN1C(=O)CNC(=O)[C@@H]1CCCN1C(=O)CNC(=O)[C@@H]1CCCN1C(=O)CNC(=O)[C@@H]1CCCN1C(C)=O)C(=O)N[C@@H](CCC(=O)O)C(=O)N[C@@H](Cc1c[nH]cn1)C(=O)N[C@H](Cc1ccccc1)C(=O)N[C@@H](CCCNC(=N)N)C(=O)N[C@@H](Cc1c[nH]c2ccccc12)C(N)=O) [compound 21] | – | 188 ± 25 | –

Second part, led by results:

Row | EC50 ([1]; SEM) [nM] | Molecule | EC50 [2] [nM] | further results
6 | 1.7 | CCCC[C@H](NC(=O)COCC(=O)NCCCOCCOCCOCCCNC(=O)COCC(=O)NCCCOCCOCCOCCCNC(=O)[C@H](Cc1c[nH]c2ccccc12)NC(=O)[C@H](CCCNC(=N)N)NC(=O)[C@@H](Cc1ccccc1)NC(=O)[C@H](Cc1c[nH]cn1)NC(=O)[C@H](CCC(=O)O)NC(=O)[C@H](CCCC)NC(=O)[C@H](CO)NC(C)=O)C(=O)N[C@H]1CC(=O)NCCCC[C@@H](C(N)=O)NC(=O)[C@H](Cc2c[nH]c3ccccc23)NC(=O)[C@H](CCCNC(=N)N)NC(=O)[C@@H](Cc2ccc3ccccc3c2)NC(=O)[C@H](Cc2c[nH]cn2)NC1=O [compound 18, Ac-MSH(7)-PEGO-PEGO-SHU9119-NH2] | – | –
7 | 1.86 | CCCC[C@H](NC(=O)COCC(=O)NCCCOCCOCCOCCCNC(=O)[C@H](Cc1c[nH]c2ccccc12)NC(=O)[C@H](CCCNC(=N)N)NC(=O)[C@@H](Cc1ccccc1)NC(=O)[C@H](Cc1c[nH]cn1)NC(=O)[C@H](CCC(=O)O)NC(=O)[C@H](CCCC)NC(=O)[C@H](CO)NC(C)=O)C(=O)N[C@H]1CC(=O)NCCCC[C@@H](C(N)=O)NC(=O)[C@H](Cc2c[nH]c3ccccc23)NC(=O)[C@H](CCCNC(=N)N)NC(=O)[C@@H](Cc2ccc3ccccc3c2)NC(=O)[C@H](Cc2c[nH]cn2)NC1=O [compound 17, Ac-MSH(7)-PEGO-SHU9119-NH2] | – | –
8 | 1.38 | CCCC[C@H](NC(=O)COCC(=O)NCCCOCCOCCOCCCNC(=O)CNC(=O)[C@@H]1CCCN1C(=O)CNC(=O)[C@@H]1CCCN1C(=O)CNC(=O)[C@@H]1CCCN1C(=O)COCC(=O)NCCCOCCOCCOCCCNC(=O)[C@H](Cc1c[nH]c2ccccc12)NC(=O)[C@H](CCCNC(=N)N)NC(=O)[C@@H](Cc1ccccc1)NC(=O)[C@H](Cc1c[nH]cn1)NC(=O)[C@H](CCC(=O)O)NC(=O)[C@H](CCCC)NC(=O)[C@H](CO)NC(C)=O)C(=O)N[C@H]1CC(=O)NCCCC[C@@H](C(N)=O)NC(=O)[C@H](Cc2c[nH]c3ccccc23)NC(=O)[C@H](CCCNC(=N)N)NC(=O)[C@@H](Cc2ccc3ccccc3c2)NC(=O)[C@H](Cc2c[nH]cn2)NC1=O [compound 16, Ac-MSH(7)-PEGO-(Pro-Gly)3-PEGO-SHU9119-NH2] | – | –
9 | 1.58 | CCCC[C@H](NC(=O)CNC(=O)[C@@H]1CCCN1C(=O)CNC(=O)[C@@H]1CCCN1C(=O)CNC(=O)[C@@H]1CCCN1C(=O)CNC(=O)[C@@H]1CCCN1C(=O)CNC(=O)[C@@H]1CCCN1C(=O)CNC(=O)[C@@H]1CCCN1C(=O)CNC(=O)[C@@H]1CCCN1C(=O)CNC(=O)[C@@H]1CCCN1C(=O)CNC(=O)[C@@H]1CCCN1C(=O)CNC(=O)[C@@H]1CCCN1C(=O)CNC(=O)[C@@H]1CCCN1C(=O)CNC(=O)[C@@H]1CCCN1C(=O)[C@H](Cc1c[nH]c2ccccc12)NC(=O)[C@H](CCCNC(=N)N)NC(=O)[C@@H](Cc1ccccc1)NC(=O)[C@H](Cc1c[nH]cn1)NC(=O)[C@H](CCC(=O)O)NC(=O)[C@H](CCCC)NC(=O)[C@H](CO)NC(C)=O)C(=O)N[C@H]1CC(=O)NCCCC[C@@H](C(N)=O)NC(=O)[C@H](Cc2c[nH]c3ccccc23)NC(=O)[C@H](CCCNC(=N)N)NC(=O)[C@@H](Cc2ccc3ccccc3c2)NC(=O)[C@H](Cc2c[nH]cn2)NC1=O [compound 15, Ac-MSH(7)-(Pro-Gly)12-SHU9119-NH2] (Ac-S[Nle]EH[dF]RWPGPGPGPGPGPGPGPGPGPGPGPG[Nle]DH[d2Nal]RWK-NH2; lactam 33-38) | – | –
